In PubChem BioAssay (NCI):
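Five concentrations, 48 hours, 96-well plates. Definition used: TGI = concentration required for complete inhibition of growth.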

How the values were obtained:
Assay in all cases: NCI tumour cell line growth inhibition, 48 h
[1] = system: MOLT-4 leukemia
[2] = system: T-47D breast
[3] = system: SNB-75 CNS
[4] = system: HOP-92 NSCLC
[5] = system: SW-620 colon
[6] = system: K-562 leukemia
[7] = system: MCF7 breast
[8] = system: NCI-H226 lung
[9] = system: LOX IMVI melanoma
[10] = system: HL-60(TB) leukemia
[11] = system: CAKI-1 renal
[12] = system: MDA-N
[13] = system: SK-MEL-28 melanoma
[14] = system: BT-549 breast
[15] = system: UACC-257 melanoma
[16] = system: NCI-H23 lung
[17] = system: MALME-3M melanoma
[18] = system: HOP-62 NSCLC
[19] = system: MDA-MB-231 breast
[20] = system: OVCAR-4 ovarian
[21] = system: M14 melanoma
[22] = system: DU-145 prostate
[23] = system: COLO 205 colon
[24] = system: SF-539 CNS
[25] = system: HCC-2998 colon
[26] = system: A549 NSCLC
[27] = system: SK-MEL-5 melanoma
[28] = system: IGROV1 ovarian
[29] = system: TK-10 renal
[30] = system: SR leukemia
[31] = system: OVCAR-8 ovarian
[32] = system: NCI-H460 lung
[33] = system: RPMI-8226 leukemia
[34] = system: HCT-15 colon
[35] = system: SN12C renal
[36] = system: HS 578T breast
[37] = system: NCI/ADR-RES ovarian
[38] = system: SF-268 CNS
[39] = system: U251 CNS
[40] = system: A498 renal
[41] = system: EKVX NSCLC
[42] = system: UO-31 renal
[43] = system: SK-OV-3 ovarian
[44] = system: CCRF-CEM leukemia
[45] = system: KM12 colon
[46] = system: 786-0 renal
[47] = system: UACC-62 melanoma
[48] = system: OVCAR-5 ovarian
[49] = system: SF-295 CNS
[50] = system: SNB-19 CNS
[51] = system: ACHN renal
[52] = system: NCI-H522 lung
[53] = system: PC-3 prostate
[54] = system: OVCAR-3 ovarian
[55] = system: HT29 colon
[56] = system: SK-MEL-2 melanoma
[57] = system: HCT-116 colon
[58] = system: MDA-MB-435

Work on `COc1ccc(/C(C)=N/NC(=O)c2ccncc2)c(OC)c1` yielded a TGI [1] of over 10 µM, a TGI [2] of over 10 µM and a TGI [3] of over 10 µM. The TGI [4] was over 10 µM, the TGI [5] was over 10 µM and the TGI [6] was over 10 µM. The TGI [7] was over 10 µM, the TGI [8] was over 10 µM and the TGI [9] was over 10 µM. For the same molecule, the TGI [10] was over 10 µM, the TGI [11] was over 10 µM and the TGI [12] was over 10 µM. For the same molecule, the TGI [13] was over 10 µM, the TGI [14] was over 10 µM and the TGI [15] was over 10 µM. It also gave a TGI [16] of over 10 µM, a TGI [17] of over 10 µM and a TGI [18] of over 10 µM. It also gave a TGI [19] of over 10 µM, a TGI [20] of over 10 µM and a TGI [21] of over 10 µM. For the same molecule, the TGI [22] was over 10 µM, the TGI [23] was over 10 µM and the TGI [24] was over 10 µM. It also gave a TGI [25] of over 10 µM, a TGI [26] of over 10 µM and a TGI [27] of over 10 µM. The TGI [28] was over 10 µM, the TGI [29] was over 10 µM and the TGI [30] was over 10 µM. The TGI [31] was over 10 µM, the TGI [32] was over 10 µM and the TGI [33] was over 10 µM. It also gave a TGI [34] of over 10 µM, a TGI [35] of over 10 µM and a TGI [36] of over 10 µM. It also gave a TGI [37] of over 10 µM, a TGI [38] of over 10 µM and a TGI [39] of over 10 µM. It also gave a TGI [40] of over 10 µM, a TGI [41] of over 10 µM and a TGI [42] of over 10 µM. For the same molecule, the TGI [43] was over 10 µM, the TGI [44] was over 10 µM and the TGI [45] was over 10 µM. For the same molecule, the TGI [46] was over 10 µM and the TGI [47] was over 10 µM.

In the case of `COC(=O)C1CCC(=O)N1C(c1cc(OC)c(OC)c(OC)c1)c1cc(OC)c(OC)c(OC)c1` (centres undefined), the TGI [1] was over 100 µM, the TGI [2] was over 100 µM and the TGI [3] was over 100 µM. The TGI [48] was over 100 µM, the TGI [49] was over 100 µM and the TGI [50] was over 100 µM. It also gave a TGI [4] of over 100 µM, a TGI [5] of over 100 µM and a TGI [6] of over 100 µM. For the same molecule, the TGI [51] was over 100 µM, the TGI [7] was over 100 µM and the TGI [9] was over 100 µM. The TGI [10] was over 100 µM, the TGI [12] was over 100 µM and the TGI [13] was over 100 µM. For the same molecule, the TGI [15] was over 100 µM, the TGI [18] was over 100 µM and the TGI [19] was over 100 µM. It also gave a TGI [21] of over 100 µM, a TGI [22] of over 100 µM and a TGI [52] of over 100 µM. The TGI [24] was over 100 µM, the TGI [53] was over 100 µM and the TGI [26] was over 100 µM. For the same molecule, the TGI [28] was over 100 µM, the TGI [29] was over 100 µM and the TGI [30] was over 100 µM. The TGI [31] was over 100 µM, the TGI [32] was over 100 µM and the TGI [33] was over 100 µM. The TGI [34] was over 100 µM, the TGI [54] was over 100 µM and the TGI [55] was over 100 µM. For the same molecule, the TGI [35] was over 100 µM, the TGI [36] was over 100 µM and the TGI [38] was over 100 µM. It also gave a TGI [39] of over 100 µM, a TGI [40] of over 100 µM and a TGI [41] of over 100 µM. It also gave a TGI [42] of over 100 µM, a TGI [43] of over 100 µM and a TGI [56] of over 100 µM. For the same molecule, the TGI [57] was over 100 µM, the TGI [45] was over 100 µM and the TGI [46] was over 100 µM. It also gave a TGI [58] of over 100 µM and a TGI [47] of over 100 µM.
